{"source": "ChEMBL document CHEMBL3396960", "about": "“Synthesis and pharmacological characterization of 2-aminobenzaldehyde oxime analogs as dual inhibitors of neutrophil elastase and proteinase 3” (Bioorg Med Chem, 2015)", "key": {"Cathepsin G": {"target": "T1, Cathepsin G (Homo sapiens, UniProt P08311)", "T1 sequence (P08311 whole entry)": "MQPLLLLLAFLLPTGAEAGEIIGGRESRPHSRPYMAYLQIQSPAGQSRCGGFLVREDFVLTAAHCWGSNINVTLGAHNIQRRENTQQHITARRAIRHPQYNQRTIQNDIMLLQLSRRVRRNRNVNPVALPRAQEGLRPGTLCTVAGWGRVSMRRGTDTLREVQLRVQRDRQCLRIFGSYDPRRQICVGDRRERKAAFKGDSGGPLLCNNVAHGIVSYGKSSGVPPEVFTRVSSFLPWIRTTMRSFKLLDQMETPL", "experiment": "Inhibition of human cathepsin G using N-succinyl-Ala-Ala-Pro-Phe-p-nitroanilide as substrate measured for 180 mins by spectrophotometry"}, "Neutrophil elastase": {"target": "T2, Neutrophil elastase (Homo sapiens, UniProt P08246)", "T2 sequence (P08246 whole entry)": "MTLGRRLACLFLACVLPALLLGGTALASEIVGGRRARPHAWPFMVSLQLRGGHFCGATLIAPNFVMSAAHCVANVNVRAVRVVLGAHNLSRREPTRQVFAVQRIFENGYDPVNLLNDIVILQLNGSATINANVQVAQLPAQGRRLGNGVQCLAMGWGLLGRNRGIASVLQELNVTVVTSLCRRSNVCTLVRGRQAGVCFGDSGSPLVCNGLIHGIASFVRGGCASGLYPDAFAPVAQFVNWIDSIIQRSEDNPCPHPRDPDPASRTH", "experiment": "Inhibition of human neutrophil elastase measured for 30 mins by spectrophotometry"}, "Neutrophil [1]": {"tested_on": "Neutrophil", "experiment": "cells", "details": "Homo sapiens"}, "Neutrophil [2]": {"tested_on": "Neutrophil", "experiment": "cells", "details": "Homo sapiens", "remark": "listed apart in the source"}, "Myeloblastin": {"target": "T3, Myeloblastin (Homo sapiens, UniProt P24158)", "T3 sequence (P24158 whole entry)": "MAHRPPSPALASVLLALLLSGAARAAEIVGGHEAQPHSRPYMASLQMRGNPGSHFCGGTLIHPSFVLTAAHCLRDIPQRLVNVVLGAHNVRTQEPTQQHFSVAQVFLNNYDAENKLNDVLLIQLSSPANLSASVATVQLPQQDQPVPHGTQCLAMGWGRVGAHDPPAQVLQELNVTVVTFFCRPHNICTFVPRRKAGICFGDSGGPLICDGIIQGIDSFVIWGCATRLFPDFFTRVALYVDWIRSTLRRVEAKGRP", "experiment": "Inhibition of Pr3 (unknown origin) using t-butyloxycarbonyl-Ala-Ala-Nva-thiobenzyl ester as substrate measured for 180 mins by spectrophotometry"}}}
{"smiles": "CC(C)(C)C(=O)Oc1ccc(S(=O)(=O)Nc2ccccc2C=O)cc1", "values": [{"measurement": "IC50", "setting": "Cathepsin G", "result": "> 10", "unit": "µM"}, {"measurement": "IC50", "setting": "Neutrophil elastase", "result": 120, "unit": "nM"}, {"measurement": "IC50", "setting": "Neutrophil [1]", "result": "> 20", "unit": "µM"}, {"measurement": "IC50", "setting": "Neutrophil [2]", "result": 50, "unit": "nM"}]}
{"smiles": "CC(C)(C)C(=O)Oc1ccc(S(=O)(=O)Nc2ccccc2C(=O)OCCO)cc1", "values": [{"measurement": "IC50", "setting": "Cathepsin G", "result": "> 10", "unit": "µM"}, {"measurement": "IC50", "setting": "Neutrophil elastase", "result": 290, "unit": "nM"}, {"measurement": "IC50", "setting": "Neutrophil [1]", "result": "> 20", "unit": "µM"}, {"measurement": "IC50", "setting": "Neutrophil [2]", "result": 50, "unit": "nM"}]}
{"smiles": "CCOC(=O)c1ccccc1NC(=O)c1ccc(OC(=O)C(C)(C)C)cc1", "values": [{"measurement": "IC50", "setting": "Cathepsin G", "result": "> 10", "unit": "µM"}, {"measurement": "IC50", "setting": "Neutrophil elastase", "result": 480, "unit": "nM"}, {"measurement": "IC50", "setting": "Neutrophil [1]", "result": "> 20", "unit": "µM"}, {"measurement": "IC50", "setting": "Neutrophil [2]", "result": 300, "unit": "nM"}]}
{"smiles": "CCCC(=O)c1ccccc1NS(=O)(=O)c1ccc(OC(=O)C(C)(C)C)cc1", "values": [{"measurement": "IC50", "setting": "Cathepsin G", "result": "> 10", "unit": "µM"}, {"measurement": "IC50", "setting": "Neutrophil elastase", "result": 370, "unit": "nM"}, {"measurement": "IC50", "setting": "Neutrophil [1]", "result": "> 20", "unit": "µM"}]}
{"smiles": "CC(C)(C)[S+]([O-])Nc1ccc(S(=O)(=O)Nc2ccccc2C=O)cc1", "note": "(configuration not stated)", "values": [{"measurement": "IC50", "setting": "Cathepsin G", "result": "> 10", "unit": "µM"}, {"measurement": "IC50", "setting": "Neutrophil elastase", "result": "> 10000", "unit": "nM"}, {"measurement": "IC50", "setting": "Myeloblastin", "result": "> 10", "unit": "µM"}, {"measurement": "IC50", "setting": "Neutrophil [1]", "result": "> 20", "unit": "µM"}, {"measurement": "IC50", "setting": "Neutrophil [2]", "result": 9410, "unit": "nM"}]}
{"smiles": "CC/C(=N/O)c1ccccc1NS(=O)(=O)c1ccc(OC(=O)C(C)(C)C)cc1", "values": [{"measurement": "IC50", "setting": "Cathepsin G", "result": "> 10", "unit": "µM"}, {"measurement": "IC50", "setting": "Neutrophil [1]", "result": 13.4, "unit": "µM"}]}
{"smiles": "CC(=O)c1ccccc1NS(=O)(=O)c1ccc(OC(=O)C(C)(C)C)cc1", "values": [{"measurement": "IC50", "setting": "Cathepsin G", "result": "> 10", "unit": "µM"}, {"measurement": "IC50", "setting": "Neutrophil elastase", "result": 110, "unit": "nM"}, {"measurement": "IC50", "setting": "Neutrophil [1]", "result": "> 20", "unit": "µM"}, {"measurement": "IC50", "setting": "Neutrophil [2]", "result": 90, "unit": "nM"}]}
{"smiles": "CC(C)(C)C(=O)Oc1ccc(S(=O)(=O)Nc2ccccc2C(=O)NCCO)cc1", "values": [{"measurement": "IC50", "setting": "Cathepsin G", "result": "> 10", "unit": "µM"}, {"measurement": "IC50", "setting": "Neutrophil elastase", "result": 130, "unit": "nM"}, {"measurement": "IC50", "setting": "Neutrophil [1]", "result": "> 20", "unit": "µM"}, {"measurement": "IC50", "setting": "Neutrophil [2]", "result": 50, "unit": "nM"}]}
{"smiles": "CCOC(=O)c1ccccc1NC(=O)c1ccc(OC(=O)C(C)(C)C(F)(F)F)cc1", "values": [{"measurement": "IC50", "setting": "Cathepsin G", "result": "> 10", "unit": "µM"}, {"measurement": "IC50", "setting": "Neutrophil elastase", "result": "> 10000", "unit": "nM"}, {"measurement": "IC50", "setting": "Myeloblastin", "result": "> 10", "unit": "µM"}, {"measurement": "IC50", "setting": "Neutrophil [1]", "result": "> 20", "unit": "µM"}, {"measurement": "IC50", "setting": "Neutrophil [2]", "result": 13800, "unit": "nM"}]}
{"smiles": "COC(=O)c1ccccc1NS(=O)(=O)c1ccc(NC(=O)C(C)(C)C)cc1", "values": [{"measurement": "IC50", "setting": "Cathepsin G", "result": "> 10", "unit": "µM"}, {"measurement": "IC50", "setting": "Neutrophil elastase", "result": "> 10000", "unit": "nM"}, {"measurement": "IC50", "setting": "Myeloblastin", "result": "> 10", "unit": "µM"}, {"measurement": "IC50", "setting": "Neutrophil [1]", "result": "> 20", "unit": "µM"}, {"measurement": "IC50", "setting": "Neutrophil [2]", "result": 13600, "unit": "nM"}]}
{"smiles": "CO/N=C(/C)c1ccccc1NS(=O)(=O)c1ccc(OC(=O)C(C)(C)C)cc1", "values": [{"measurement": "IC50", "setting": "Cathepsin G", "result": "> 10", "unit": "µM"}, {"measurement": "IC50", "setting": "Neutrophil [1]", "result": "> 20", "unit": "µM"}]}
